# Measured values: article PMC3174134, “Lucanthone and Its Derivative Hycanthone Inhibit Apurinic Endonuclease-1 (APE1) by Direct Protein Binding” (PLoS ONE, 2011)
# Assays:
# tubulin = assay: Tubulin stability in U251 1-5 whole cell extracts, Western blot; details: lucanthone 2.5-100 µM; CRT at 200 µM
# Method: (§1) Total purified protein concentration was determined by the ratio of A280/A260. 250 ng of APE1 treated with lucanthone or hycanthone (0.05–100 µM) for 2 h at 37°C in final volume of 30 µl were mixed with an equal volume of gel loading buffer (0.001% bromophenol blue, 4% SDS, 10% 2-ME, 20% glycerol, and 125 mM Tris pH 6.8) and denatured at 95°C for 5 min. Total protein concentration in cell extracts was determined using the Bradford assay (BioRad, Hercules, CA) and 25 µg of total protein from soluble or insoluble cell fractions were mixed with an equal volume of gel loading buffer (0.001% bromophenol blue, 4% SDS, 10% 2-ME, 20% glycerol, and 125 mM Tris pH 6.8) and denatured at 95°C for 5 min. This mixture was separated by SDS-PAGE (4% stacking, 7.5% resolving gel) for 2–3 h at 40 mA on a BioRad MiniPROTEAN II Electrophoresis Cell. To detect proteins, proteins were transferred onto a trans-Blot nitrocellulose membrane (0.45 µm; BioRad) overnight at 4°C at 15 mA in standard Tris-Glycine buffer containing 20% ethanol. […] Chemi-luminescence was developed using an ECL kit according to the manufacturer's instructions and detected by exposing the blot to HyperfilmECL for 30 s–3 min. […]
# [1] = biological target: T1, recombinant full length APE1 (Homo sapiens, UniProt P27695); assay: Cleavage of recombinant full length APE1, Western blot
# T1 construct: the full length APE1 protein was successfully expressed and purified; made in house; host or cells: E. coli BL21/DE3
# T1 sequence (P27695 whole entry): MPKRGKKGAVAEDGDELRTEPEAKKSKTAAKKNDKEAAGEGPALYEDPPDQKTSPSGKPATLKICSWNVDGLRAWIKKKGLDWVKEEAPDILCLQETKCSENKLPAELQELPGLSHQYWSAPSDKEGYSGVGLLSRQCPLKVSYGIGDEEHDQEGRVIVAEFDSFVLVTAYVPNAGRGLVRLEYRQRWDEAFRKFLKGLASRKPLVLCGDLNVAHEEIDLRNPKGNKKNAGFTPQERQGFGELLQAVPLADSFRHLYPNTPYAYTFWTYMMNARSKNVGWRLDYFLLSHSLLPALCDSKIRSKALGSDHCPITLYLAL
# Method: as §1
# human Nth [2] = biological target: T2, human Nth (Homo sapiens, UniProt P78549); assay: Cleavage of human Nth by lucanthone (specificity control); details: data not shown
# T2 sequence (P78549 23-304): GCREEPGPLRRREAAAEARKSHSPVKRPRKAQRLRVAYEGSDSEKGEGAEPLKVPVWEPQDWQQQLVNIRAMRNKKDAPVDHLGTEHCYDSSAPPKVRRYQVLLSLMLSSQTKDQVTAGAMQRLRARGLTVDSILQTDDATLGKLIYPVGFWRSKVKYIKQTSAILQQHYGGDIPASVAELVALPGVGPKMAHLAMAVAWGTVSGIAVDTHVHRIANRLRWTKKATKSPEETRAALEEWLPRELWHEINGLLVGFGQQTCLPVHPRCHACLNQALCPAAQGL
# [3] = biological target: T3, APE1 single mutants (F266A or W280S) (Homo sapiens, UniProt P27695, F266A); assay: Endonuclease activity of APE1 hydrophobic site mutants with lucanthone; format: biochemical; details: 100 µM lucanthone, 2 h, 37°C
# T3 construct: made in house
# T3 sequence (P27695 2-318 F266A): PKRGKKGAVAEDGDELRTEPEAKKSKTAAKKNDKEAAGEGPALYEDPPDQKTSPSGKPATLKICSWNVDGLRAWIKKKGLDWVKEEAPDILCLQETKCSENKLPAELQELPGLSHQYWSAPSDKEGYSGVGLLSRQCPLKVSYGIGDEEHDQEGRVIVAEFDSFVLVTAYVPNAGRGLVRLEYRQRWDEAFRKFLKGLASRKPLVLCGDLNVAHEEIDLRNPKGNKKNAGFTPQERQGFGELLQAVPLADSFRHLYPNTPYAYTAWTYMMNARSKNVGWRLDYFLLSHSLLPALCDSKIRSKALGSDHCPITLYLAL
# Method: APE1 endonuclease activity was determined using an assay that measures the conversion of plasmid DNA from supercoiled to relaxed form by incision at an abasic site [35]–[36]. Briefly, the substrate used was 200 ng of depurinated pUC18 DNA in 10 µl of 1× APE1 buffer containing 50 mM Hepes, pH 7.4, 150 mM KCl, 5 mM MgCl2 and 100 µg/ml of BSA in presence of different concentrations of the cell extract (1 µl containing 0–55 ng of total protein). Similar reactions mixtures were set up with untreated pUC18, which served as the internal control. This reaction mixture was incubated at 37°C for 15 min, and the reaction was stopped by addition of alkaline stop mix (0.25% bromocresol green in 0.25N NaOH, 50% glycerol) and left at room temperature for 10–15 min. Then the products were resolved on a 0.8% agarose gel in 40 mM Tris-acetate and 2 mM EDTA for 2 h. The gel was stained with ethidium bromide to visualize supercoiled and relaxed plasmid DNA and imaged with a digital imaging system and the area under the supercoiled and relaxed form was determined. Final calculations were done in femtomoles (fmol) of abasic sites incised/min/mg protein with normalization done using Pyruvate Kinase units (PKU) present in these extracts. […] The endonuclease activity inhibition by lucanthone was analyzed using standard Lineweaver-Burke Plot to determine if the inhibition was competitive or non-competitive.
# human Nth [4] = biological target: T2, human Nth; assay: Circular dichroism of human Nth with lucanthone; details: 140 µM lucanthone, 37°C, 60 min
# APE1 mutant proteins [5] = biological target: T4, APE1 mutant proteins (Homo sapiens, UniProt P27695, W280S); assay: Cleavage of mutant APE1 proteins by lucanthone, Western blot; details: 100 µM lucanthone, 37°C, 2 h
# T4 construct: made in house
# T4 sequence (P27695 2-318 W280S): as the sequence (P27695 2-318 F266A) above, with A265F, W279S counted along it
# Method: as §1
# APE1 mutant proteins [6] = assay: as above; design: species or system human; details: 100 µM lucanthone, 37°C, 2 h
# Method: as §1
# APE1 = APE1 (Homo sapiens, UniProt P27695); assay: APE1 cleavage in whole cell extracts of U251 1-5 APE1 overexpressor clone, Western blot with protease inhibitor cocktail; design: the full length APE1 protein was successfully expressed and purified; made in house; host or cells: E. coli BL21/DE3; details: U251 1-5 whole cell extracts, 2 h, 37°C
# Chain of APE1 (P27695 whole entry): as the sequence (P27695 whole entry) above
# Method: as §1
smiles,measurement,setting,value
"CCN(CC)CCNc1ccc(C)c2sc3ccccc3c(=O)c12 [lucanthone, 1-[2-diethylaminoethylamino]-4-methylthioxanthen-9-one]",Effect on tubulin protein,tubulin,unaffected
same,Lucanthone-induced cleavage of APE1 in presence of radical quenchers,"[1]; 10 mM TRIS, 100 µM ascorbic acid or N-acetyl cysteine (purified APE1), 1% DMSO (cell extracts)",significantly inhibited
same,Cleavage of recombinant APE1,"[1]; 10-50 µM, 37°C, 2 h",increase in the formation of the 25 kDa fragment
same,Cleavage of human Nth,human Nth [2],did not observe any cleavage
same,Inhibition of endonuclease activity of single mutants F266A or W280S,[3],no inhibition was detected
same,Conformational change of human Nth (CD),human Nth [4],little conformational changes
same,Cleavage of W280S mutant,APE1 mutant proteins [5],significant cleavage
same,Cleavage of hydrophobic site mutants except W280S,APE1 mutant proteins [6],did not undergo cleavage
same,Concentration causing cleavage of APE1,APE1,50 µM
